These results are taken from PMC11571031 (Protein Science : A Publication of the Protein Society, 2024).

In one assay the target is CbTan2 (Clostridium butyricum, UniProt A0A6M0U600).
Another assay has as its target CbTan1 (Clostridium butyricum, UniProt C4IC90).

CbTan2, sequence (A0A6M0U600 1-490 limits assumed): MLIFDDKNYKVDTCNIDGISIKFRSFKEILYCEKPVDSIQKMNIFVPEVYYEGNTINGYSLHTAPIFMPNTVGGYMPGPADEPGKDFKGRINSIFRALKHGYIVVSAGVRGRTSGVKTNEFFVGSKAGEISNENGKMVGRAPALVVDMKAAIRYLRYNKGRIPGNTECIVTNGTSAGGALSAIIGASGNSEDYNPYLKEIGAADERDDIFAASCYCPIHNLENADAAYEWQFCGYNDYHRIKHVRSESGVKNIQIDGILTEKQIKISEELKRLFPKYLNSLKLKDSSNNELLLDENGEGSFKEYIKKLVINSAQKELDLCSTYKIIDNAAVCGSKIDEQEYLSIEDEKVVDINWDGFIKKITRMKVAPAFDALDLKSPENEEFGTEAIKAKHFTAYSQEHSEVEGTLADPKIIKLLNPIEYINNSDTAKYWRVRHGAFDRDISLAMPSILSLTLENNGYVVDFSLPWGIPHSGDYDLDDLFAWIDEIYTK
CbTan1, sequence (C4IC90 25-633 limits assumed): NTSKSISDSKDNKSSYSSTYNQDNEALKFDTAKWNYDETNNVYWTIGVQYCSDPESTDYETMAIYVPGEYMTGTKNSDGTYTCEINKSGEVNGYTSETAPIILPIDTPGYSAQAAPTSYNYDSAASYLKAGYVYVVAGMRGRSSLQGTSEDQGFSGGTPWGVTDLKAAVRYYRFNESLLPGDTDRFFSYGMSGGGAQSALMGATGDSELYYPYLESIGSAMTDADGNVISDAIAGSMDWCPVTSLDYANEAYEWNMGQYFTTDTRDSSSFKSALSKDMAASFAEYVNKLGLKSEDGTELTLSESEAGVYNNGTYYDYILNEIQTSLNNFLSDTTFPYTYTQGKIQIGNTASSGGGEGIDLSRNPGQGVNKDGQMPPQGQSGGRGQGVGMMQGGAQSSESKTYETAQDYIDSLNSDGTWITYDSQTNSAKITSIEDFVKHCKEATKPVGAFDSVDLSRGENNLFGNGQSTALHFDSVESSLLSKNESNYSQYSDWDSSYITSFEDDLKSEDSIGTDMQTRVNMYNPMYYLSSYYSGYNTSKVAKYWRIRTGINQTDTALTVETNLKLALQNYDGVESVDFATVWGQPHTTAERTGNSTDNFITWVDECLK

For the compound `O=C(O[C@@H]1Cc2c(O)cc(O)cc2O[C@@H]1c1cc(O)c(O)c(O)c1)c1cc(O)c(O)c(O)c1` [EGCG, epigallocatechin gallate], the “K i (mM) ^a” value at CbTan2 is on record as 1.92 ± 0.59 mM; at CbTan1, 1.11 ± 0.54 mM.

Turning to `O=C(O[C@@H]1O[C@H](CO)[C@@H](O)[C@H](O)[C@H]1O)c1cc(O)c(O)c(O)c1` [GG, β-glucogallin], the “K i (mM) ^a” value at CbTan2 stood at 8.51 ± 2.39 mM; at CbTan1, 35.9 ± 6.77 mM. As for `COC(=O)c1cc(O)c(O)c(O)c1` [MG, methyl gallate], at CbTan2, the “K i (mM) ^a” value turned out to be 44.0 ± 6.42 mM.
